Laboratory results published in patent US6914045B2, “Glycopeptide antibiotics” (Wyeth Holdings Corporation, priority 2001, dated 2005).
Values after ≈ are worked out from the molar mass of the structure shown. Values belong to the compound of their own block, whether it stands above or below them.

Assays:
Assay in all cases: in vitro antibacterial evaluation, MIC by broth dilution
Type in all cases: cell-based
Enterococcus sp. = settings: broth dilution, 18 hours at 35° C.
In short: (§1)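 Read-out: the lowest concentration at which the test strain fails to grow. Serial dilutions (64-0.06 μg/mL) in Muller-Hinton II […], 5×10^5 CFU/mL inoculum, NCCLS M7-A2 procedure.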

Staphylococcus sp. = tested on: Staphylococcus sp.
In short: as §1

Streptococcus sp. = settings: broth dilution, 18 hours at 35° C.
In short: as §1

Escherichia coli = settings: 18 hours at 35° C.
In short: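 Broth dilution MIC per NCCLS M7-A2 in Mueller-Hinton II medium, inoculum 5×10^5 CFU/mL, antibiotic range 64-0.06 μg/mL. MIC taken as lowest concentration inhibiting growth.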

[1] = strain ATCC 29213; broth dilution, 18 hours at 35° C.
[2] = strain GC 1131; broth dilution, 18 hours at 35° C.
[3] = strain GC 3051; broth dilution, 18 hours at 35° C.
[4] = strain GC 3053; broth dilution, 18 hours at 35° C.
[5] = strain GC 4541; broth dilution, 18 hours at 35° C.
[6] = strain GC 4542; broth dilution, 18 hours at 35° C.
[7] = strain GC 4544; broth dilution, 18 hours at 35° C.
[8] = strain GC 4545; broth dilution, 18 hours at 35° C.
[9] = broth dilution, 18 hours at 35° C.

- MIC Enterococcus faecalis (ATCC 29212) (Enterococcus sp.; strain ATCC 29212): 64 µg/mL (≈ 50.9 µM)
- MIC Enterococcus faecalis (GC 2242) (Enterococcus sp.; strain GC 2242): 64 µg/mL (≈ 50.9 µM)
- MIC Enterococcus faecium (GC 2243) (Enterococcus sp.; strain GC 2243): 64 µg/mL (≈ 50.9 µM)
- MIC Enterococcus faecalis (GC 2691) (Enterococcus sp.; strain GC 2691): >64 µg/mL
- MIC Enterococcus faecalis (GC 3059) (Enterococcus sp.; strain GC 3059): >64 µg/mL
- MIC Enterococcus faecalis (GC 4552) (Enterococcus sp.; strain GC 4552): >64 µg/mL
- MIC Enterococcus faecalis (GC 4553) (Enterococcus sp.; strain GC 4553): 32 µg/mL (≈ 25.5 µM)
- MIC Enterococcus faecalis (GC 4554) (Enterococcus sp.; strain GC 4554): >64 µg/mL
- MIC Enterococcus faecium (GC 4556) (Enterococcus sp.; strain GC 4556): 64 µg/mL (≈ 50.9 µM)
- MIC Enterococcus faecium (GC 4557) (Enterococcus sp.; strain GC 4557): 32 µg/mL (≈ 25.5 µM)
- MIC Enterococcus avium (GC 4558) (Enterococcus sp.; strain GC 4558): 64 µg/mL (≈ 50.9 µM)
- MIC Enterococcus faecalis (GC 6189) (Enterococcus sp.; strain GC 6189): >64 µg/mL
- MIC Staphylococcus aureus (ATCC 29213) (Staphylococcus sp.; [1]): >64 µg/mL
- MIC Staphylococcus aureus (GC 1131) (Staphylococcus sp.; [2]): >64 µg/mL
- MIC Staphylococcus aureus (GC 3051) (Staphylococcus sp.; [3]): >64 µg/mL
- MIC Staphylococcus aureus (GC 3053) (Staphylococcus sp.; [4]): >64 µg/mL
- MIC Staphylococcus aureus (GC 4541) (Staphylococcus sp.; [5]): >64 µg/mL
- MIC Staphylococcus aureus (GC 4542) (Staphylococcus sp.; [6]): >64 µg/mL
- MIC Staphylococcus aureus-SMITH (GC 4543) (Staphylococcus sp.; strain GC 4543; broth dilution, 18 hours at 35° C.): >64 µg/mL
- MIC Staphylococcus aureus (GC 4544) (Staphylococcus sp.; [7]): >64 µg/mL
- MIC Staphylococcus aureus (GC 4545) (Staphylococcus sp.; [8]): >64 µg/mL
- MIC Coagulase Negative Staphylococcus (GC 4547) (Staphylococcus sp.; strain GC 4547; broth dilution, 18 hours at 35° C.): 64 µg/mL (≈ 50.9 µM)
- MIC Coagulase Negative Staphylococcus (GC 4548) (Staphylococcus sp.; strain GC 4548; broth dilution, 18 hours at 35° C.): 64 µg/mL (≈ 50.9 µM)
- MIC Coagulase Negative Staphylococcus (GC 4549) (Staphylococcus sp.; strain GC 4549; broth dilution, 18 hours at 35° C.): >64 µg/mL
- MIC Coagulase Negative Staphylococcus (GC 4551) (Staphylococcus sp.; strain GC 4551; broth dilution, 18 hours at 35° C.): >64 µg/mL
- MIC Coagulase Negative Staphylococcus (GC 6257) (Staphylococcus sp.; strain GC 6257; broth dilution, 18 hours at 35° C.): 32 µg/mL (≈ 25.5 µM)
- MIC Streptococcus pneumoniae (ATCC 6301) (Streptococcus sp.; strain ATCC 6301): >64 µg/mL
- MIC Streptococcus pneumoniae (GC 1894) (Streptococcus sp.; strain GC 1894): 64 µg/mL (≈ 50.9 µM)
- MIC Streptococcus pyogenes (GC 4563) (Streptococcus sp.; strain GC 4563): 64 µg/mL (≈ 50.9 µM)
- MIC Streptococcus agalactiae (GC 4564) (Streptococcus sp.; strain GC 4564): >64 µg/mL
- MIC Streptococcus pneumoniae (GC 4565) (Streptococcus sp.; strain GC 4565): >64 µg/mL
- MIC Escherichia coli (ATCC 25922) (Escherichia coli; strain ATCC 25922, broth dilution): >64 µg/mL
- MIC Escherichia coli (GC 4559) (Escherichia coli; strain GC 4559, broth dilution): >64 µg/mL
- MIC Escherichia coli (GC 4560) (Escherichia coli; strain GC 4560, broth dilution): 32 µg/mL (≈ 25.5 µM)
SMILES: CC(c1ccccc1)C1NC(=O)CNC(=O)C(CO)NC(=O)C(C(O)C2CNC(=N)N2C2OC(CO)C(O)C(O)C2O)NC(=O)C(C(O)C2CNC(=N)N2)NC(=O)C(Cc2ccc(O)c(NC(=S)Nc3cc(C(F)(F)F)cc(C(F)(F)F)c3)c2)NC1=O (stereo not drawn) [Example 24, Cyclo[glycyl-β-methylphenylalanyl-3-[[[3,5-bis(trifluoromethyl)phenyl]carbamothioyl]amino]-tyrosyl-3-(2-iminoimidazolidin-4-yl)seryl-3-(3-hexopyranosyl-2-iminoimidazolidin-4-y)-serylseryl]]
- MIC Staphylococcus haemolyticus (GC 4546) (Staphylococcus sp.; strain GC 4546; broth dilution, 18 hours at 35° C.): 64 µg/mL (≈ 50.9 µM)

- MIC Enterococcus avium (GC 4558) (Enterococcus sp.): 8 µg/mL (≈ 4.81 µM)
- MIC Enterococcus faecalis (ATCC 29212) (Enterococcus sp.): 64 µg/mL (≈ 38.5 µM)
- MIC Enterococcus faecalis (GC 2242) (Enterococcus sp.): 64 µg/mL (≈ 38.5 µM)
- MIC Enterococcus faecalis (GC 2691) (Enterococcus sp.): 64 µg/mL (≈ 38.5 µM)
- MIC Enterococcus faecalis (GC 3059) (Enterococcus sp.): 128 µg/mL (≈ 77 µM)
- MIC Enterococcus faecalis (GC 4552) (Enterococcus sp.): 64 µg/mL (≈ 38.5 µM)
- MIC Enterococcus faecalis (GC 4553) (Enterococcus sp.): 8 µg/mL (≈ 4.81 µM)
- MIC Enterococcus faecalis (GC 4554) (Enterococcus sp.): 128 µg/mL (≈ 77 µM)
- MIC Enterococcus faecalis (GC 6189) (Enterococcus sp.): 64 µg/mL (≈ 38.5 µM)
- MIC Enterococcus faecium (GC 2243) (Enterococcus sp.): 32 µg/mL (≈ 19.3 µM)
- MIC Enterococcus faecium (GC 4556) (Enterococcus sp.): 64 µg/mL (≈ 38.5 µM)
- MIC Enterococcus faecium (GC 4557) (Enterococcus sp.): 8 µg/mL (≈ 4.81 µM)
- MIC Enterococcus faecalis (ATCC 29212) (Enterococcus sp.; inoculum 5×10^5 CFU/mL, strain ATCC 29212): 64 µg/mL (≈ 38.5 µM)
- MIC Enterococcus faecalis (GC 2242) (Enterococcus sp.; inoculum 5×10^5 CFU/mL, strain GC 2242): 64 µg/mL (≈ 38.5 µM)
- MIC Enterococcus faecium (GC 2243) (Enterococcus sp.; inoculum 5×10^5 CFU/mL, strain GC 2243): 32 µg/mL (≈ 19.3 µM)
- MIC Enterococcus faecalis (GC 2691) (Enterococcus sp.; inoculum 5×10^5 CFU/mL, strain GC 2691): 64 µg/mL (≈ 38.5 µM)
- MIC Enterococcus faecalis (GC 3059) (Enterococcus sp.; inoculum 5×10^5 CFU/mL, strain GC 3059): 128 µg/mL (≈ 77 µM)
- MIC Enterococcus faecalis (GC 4552) (Enterococcus sp.; inoculum 5×10^5 CFU/mL, strain GC 4552): 64 µg/mL (≈ 38.5 µM)
- MIC Enterococcus faecalis (GC 4553) (Enterococcus sp.; inoculum 5×10^5 CFU/mL, strain GC 4553): 8 µg/mL (≈ 4.81 µM)
- MIC Enterococcus faecalis (GC 4554) (Enterococcus sp.; inoculum 5×10^5 CFU/mL, strain GC 4554): 128 µg/mL (≈ 77 µM)
- MIC Enterococcus faecium (GC 4556) (Enterococcus sp.; inoculum 5×10^5 CFU/mL, strain GC 4556): 64 µg/mL (≈ 38.5 µM)
- MIC Enterococcus faecium (GC 4557) (Enterococcus sp.; inoculum 5×10^5 CFU/mL, strain GC 4557): 8 µg/mL (≈ 4.81 µM)
- MIC Enterococcus avium (GC 4558) (Enterococcus sp.; inoculum 5×10^5 CFU/mL, strain GC 4558): 8 µg/mL (≈ 4.81 µM)
- MIC Enterococcus faecalis (GC 6189) (Enterococcus sp.; inoculum 5×10^5 CFU/mL, strain GC 6189): 64 µg/mL (≈ 38.5 µM)
- MIC Coagulase Negative Staphylococcus (GC 4547) (Staphylococcus sp.; [9]): 32 µg/mL (≈ 19.3 µM)
- MIC Coagulase Negative Staphylococcus (GC 4548) (Staphylococcus sp.; [9]): 4 µg/mL (≈ 2.41 µM)
- MIC Coagulase Negative Staphylococcus (GC 4549) (Staphylococcus sp.; [9]): 32 µg/mL (≈ 19.3 µM)
- MIC Coagulase Negative Staphylococcus (GC 4551) (Staphylococcus sp.; [9]): 8 µg/mL (≈ 4.81 µM)
- MIC Staphylococcus aureus-SMITH (GC 4543) (Staphylococcus sp.; [9]): 128 µg/mL (≈ 77 µM)
- MIC Staphylococcus aureus-SMITH (GC 4543) (Staphylococcus sp.; broth dilution, 18 hours at 35° C.; strain GC 4543): 128 µg/mL (≈ 77 µM)
- MIC Coagulase Negative Staphylococcus (GC 4547) (Staphylococcus sp.; broth dilution, 18 hours at 35° C.; strain GC 4547): 32 µg/mL (≈ 19.3 µM)
- MIC Coagulase Negative Staphylococcus (GC 4548) (Staphylococcus sp.; broth dilution, 18 hours at 35° C.; strain GC 4548): 4 µg/mL (≈ 2.41 µM)
- MIC Coagulase Negative Staphylococcus (GC 4549) (Staphylococcus sp.; broth dilution, 18 hours at 35° C.; strain GC 4549): 32 µg/mL (≈ 19.3 µM)
- MIC Coagulase Negative Staphylococcus (GC 4551) (Staphylococcus sp.; broth dilution, 18 hours at 35° C.; strain GC 4551): 8 µg/mL (≈ 4.81 µM)
- MIC Staphylococcus aureus (ATCC 29213) (Staphylococcus sp.; [1]): 128 µg/mL (≈ 77 µM)
- MIC Staphylococcus aureus (GC 1131) (Staphylococcus sp.; [2]): 128 µg/mL (≈ 77 µM)
- MIC Staphylococcus aureus (GC 3051) (Staphylococcus sp.; [3]): 128 µg/mL (≈ 77 µM)
- MIC Staphylococcus aureus (GC 3053) (Staphylococcus sp.; [4]): >128 µg/mL
- MIC Staphylococcus aureus (GC 4541) (Staphylococcus sp.; [5]): 128 µg/mL (≈ 77 µM)
- MIC Staphylococcus aureus (GC 4542) (Staphylococcus sp.; [6]): 128 µg/mL (≈ 77 µM)
- MIC Staphylococcus aureus (GC 4544) (Staphylococcus sp.; [7]): 128 µg/mL (≈ 77 µM)
- MIC Staphylococcus aureus (GC 4545) (Staphylococcus sp.; [8]): 128 µg/mL (≈ 77 µM)
- MIC Streptococcus agalactiae (GC 4564) (Streptococcus sp.): 4 µg/mL (≈ 2.41 µM)
- MIC Streptococcus pneumoniae (ATCC 6301) (Streptococcus sp.): 32 µg/mL (≈ 19.3 µM)
- MIC Streptococcus pneumoniae (GC 1894) (Streptococcus sp.): 32 µg/mL (≈ 19.3 µM)
- MIC Streptococcus pneumoniae (GC 4565) (Streptococcus sp.): 64 µg/mL (≈ 38.5 µM)
- MIC Streptococcus pyogenes (GC 4563) (Streptococcus sp.): 32 µg/mL (≈ 19.3 µM)
- MIC Streptococcus pneumoniae (ATCC 6301) (Streptococcus sp.; inoculum 5×10^5 CFU/mL, strain ATCC 6301): 32 µg/mL (≈ 19.3 µM)
- MIC Streptococcus pneumoniae (GC 1894) (Streptococcus sp.; inoculum 5×10^5 CFU/mL, strain GC 1894): 32 µg/mL (≈ 19.3 µM)
- MIC Streptococcus pyogenes (GC 4563) (Streptococcus sp.; inoculum 5×10^5 CFU/mL, strain GC 4563): 32 µg/mL (≈ 19.3 µM)
- MIC Streptococcus agalactiae (GC 4564) (Streptococcus sp.; inoculum 5×10^5 CFU/mL, strain GC 4564): 64 µg/mL (≈ 38.5 µM)
- MIC Streptococcus pneumoniae (GC 4565) (Streptococcus sp.; inoculum 5×10^5 CFU/mL, strain GC 4565): 64 µg/mL (≈ 38.5 µM)
- MIC Escherichia coli (ATCC 25922) (Escherichia coli): >128 µg/mL
- MIC Escherichia coli (GC 4559) (Escherichia coli): >128 µg/mL
- MIC Escherichia coli (GC 4560) (Escherichia coli): 8 µg/mL (≈ 4.81 µM)
SMILES: CC(c1ccccc1)C1NC(=O)CNC(=O)C(CO)NC(=O)C(C(O)C2CN(c3nc4ccccc4o3)C(=N)N2C2OC(CO)C(O)C(O)C2O)NC(=O)C(C(O)C2CNC(=Nc3nc4ccccc4o3)N2)NC(=O)C(Cc2ccc(OC3OC(CO)C(OC4OC5COC6(OC5C(O)C4O)C4CC5CC(C4)CC6C5)C(O)C3O)cc2)NC1=O (centres unmarked) [Example 227]
- MIC Staphylococcus haemolyticus (GC 4546) (Staphylococcus sp.; [9]): 64 µg/mL (≈ 38.5 µM)
- MIC Staphylococcus haemolyticus (GC 4546) (Staphylococcus sp.; broth dilution, 18 hours at 35° C.; strain GC 4546): 64 µg/mL (≈ 38.5 µM)
